According to patent US20120029187A1, “HALOALKYLSULFONANILIDE DERIVATIVE” (Nissan Chemical Industries, Ltd., priority 2009, published 2012):

Columns and labels:
Assay type in all cases: in vivo
barnyardgrass [1] = assay: Test Example 1: herbicidal effects in preemergence treatment under submerged conditions; details: dose 2.52 g/a
Outline: (§1)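 Alluvial soil flooded to 4 cm depth; barnyardgrass, bulrush and ducksalad sown and 2.5-leaf rice seedlings transplanted. Same day, water-diluted emulsifiable concentrates applied to the water surface at set doses (g/a). Kept at 25–30 °C in greenhouse; effects scored 0–5 by mortality after three weeks.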

bulrush [2] = assay: as above; details: dose 2.52 g/a
Outline: as §1

ducksalad [3] = assay: as above; details: dose 2.52 g/a
Outline: as §1

transplanted rice = assay: Test Example 1: preemergence treatment under submerged conditions, effect on crop; details: dose 2.52 g/a
Outline: as §1

barnyardgrass [4] = assay: Test Example 2: herbicidal effects during the vegetation period under submerged conditions; details: treatment during the vegetation period under submerged conditions; dose 2.52 g/a
Outline: (§2)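 Barnyardgrass, bulrush and ducksalad were co-sown in alluvial soil flooded to 4 cm and grown in a greenhouse at 25 to 30° C. At the 1- or 2-leaf stage, water-diluted emulsifiable concentrates went onto the water surface at set doses (g/a). Herbicidal effect was scored three weeks later on a graded scale.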

bulrush [5] = assay: as above; details: treatment during the vegetation period under submerged conditions; dose 2.52 g/a
Outline: as §2

ducksalad [6] = assay: as above; details: treatment during the vegetation period under submerged conditions; dose 2.52 g/a
Outline: as §2

Italian ryegrass [7] = assay: Test Example 3: herbicidal effects in soil treatment; details: dose 3.2 g/a
Outline: (§3)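 Seeds were sown in sterilized diluvial soil and covered with about 1.5 cm of soil. Compounds, formulated as emulsifiable concentrates and diluted with water, were sprayed evenly over the soil surface at set doses in g/a. Herbicidal effect was scored on a rating scale three weeks later.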

barnyardgrass [8] = assay: as above; details: dose 3.2 g/a
Outline: as §3

beadstraw [9] = assay: as above; details: dose 3.2 g/a
Outline: as §3

common chickweed [10] = assay: as above; details: dose 3.2 g/a
Outline: as §3

common lambsquater [11] = assay: as above; details: dose 3.2 g/a
Outline: as §3

common ragweed [12] = assay: as above; details: dose 3.2 g/a
Outline: as §3

giant foxtail [13] = assay: as above; details: dose 3.2 g/a
Outline: as §3

large crabgrass [14] = assay: as above; details: dose 3.2 g/a
Outline: as §3

posumbu knotweed [15] = assay: as above; details: dose 3.2 g/a
Outline: as §3

redroot pigweed [16] = assay: as above; details: dose 3.2 g/a
Outline: as §3

velvetleaf [17] = assay: as above; details: dose 3.2 g/a
Outline: as §3

water foxtail [18] = assay: as above; details: dose 3.2 g/a
Outline: as §3

Italian ryegrass [19] = assay: Test Example 4: herbicidal effect in foliage treatment; details: dose 3.2 g/a, three weeks after the application
Outline: (§4)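 14-day greenhouse-grown plants (25–30° C) sprayed on foliage with diluted EC; dose as g/a; effect graded after 3 weeks.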

barnyardgrass [20] = assay: as above; details: dose 3.2 g/a, three weeks after the application
Outline: as §4

beadstraw [21] = assay: as above; details: dose 3.2 g/a, three weeks after the application
Outline: as §4

common chickweed [22] = assay: as above; details: dose 3.2 g/a, three weeks after the application
Outline: as §4

common lambsquater [23] = assay: as above; details: dose 3.2 g/a, three weeks after the application
Outline: as §4

common ragweed [24] = assay: as above; details: dose 3.2 g/a, three weeks after the application
Outline: as §4

giant foxtail [25] = assay: as above; details: dose 3.2 g/a, three weeks after the application
Outline: as §4

large crabgrass [26] = assay: as above; details: dose 3.2 g/a, three weeks after the application
Outline: as §4

posumbu knotweed [27] = assay: as above; details: dose 3.2 g/a, three weeks after the application
Outline: as §4

redroot pigweed [28] = assay: as above; details: dose 3.2 g/a, three weeks after the application
Outline: as §4

velvetleaf [29] = assay: as above; details: dose 3.2 g/a, three weeks after the application
Outline: as §4

water foxtail [30] = assay: as above; details: dose 3.2 g/a, three weeks after the application
Outline: as §4

| SMILES | A: barnyardgrass, herbicidal effect (evaluation scale 0-5) (barnyardgrass [1]) | B: bulrush, herbicidal effect (evaluation scale 0-5) (bulrush [2]) | C: ducksalad, herbicidal effect (evaluation scale 0-5) (ducksalad [3]) | a: transplanted rice, effect on crop (evaluation scale 0-5) (transplanted rice) | A: barnyardgrass, herbicidal effect (evaluation scale 0-5) (barnyardgrass [4]) | B: bulrush, herbicidal effect (evaluation scale 0-5) (bulrush [5]) | C: ducksalad, herbicidal effect (evaluation scale 0-5) (ducksalad [6]) | herbicidal effect, H: Italian ryegrass (Italian ryegrass [7]) | herbicidal effect, A: barnyardgrass (barnyardgrass [8]) | herbicidal effect, O: beadstraw (beadstraw [9]) | herbicidal effect, N: common chickweed (common chickweed [10]) | herbicidal effect, L: common lambsquater (common lambsquater [11]) | herbicidal effect, J: common ragweed (common ragweed [12]) | herbicidal effect, E: giant foxtail (giant foxtail [13]) | herbicidal effect, D: large crabgrass (large crabgrass [14]) | herbicidal effect, M: posumbu knotweed (posumbu knotweed [15]) | herbicidal effect, K: redroot pigweed (redroot pigweed [16]) | herbicidal effect, I: velvetleaf (velvetleaf [17]) | herbicidal effect, G: water foxtail (water foxtail [18]) | H: Italian ryegrass, herbicidal effect (Italian ryegrass [19]) | further results |
| --- | --- | --- | --- | --- | --- | --- | --- | --- | --- | --- | --- | --- | --- | --- | --- | --- | --- | --- | --- | --- | --- |
| CCC1CON(Cc2ccccc2NS(=O)(=O)C(F)(F)F)C(=O)O1 (centres unmarked) [III-5] | 5 (mortality of 90% or above (nearly complete death)) | 5 (mortality of 90% or above (nearly complete death)) | 5 (mortality of 90% or above (nearly complete death)) | 0 (mortality of less than 5% (almost ineffective)) | 5 (mortality of 90% or above (nearly complete death)) | 5 (mortality of 90% or above (nearly complete death)) | 5 (mortality of 90% or above (nearly complete death)) | 5 (mortality of 90% or above (nearly complete death)) | 5 (mortality of 90% or above (nearly complete death)) | 4 (mortality of at least 70% and less than 90%) | 5 (mortality of 90% or above (nearly complete death)) | 5 (mortality of 90% or above (nearly complete death)) | 4 (mortality of at least 70% and less than 90%) | 5 (mortality of 90% or above (nearly complete death)) | 5 (mortality of 90% or above (nearly complete death)) | 4 (mortality of at least 70% and less than 90%) | 0 (mortality of less than 5% (almost ineffective)) | 5 (mortality of 90% or above (nearly complete death)) | 5 (mortality of 90% or above (nearly complete death)) | 1 (mortality of at least 5% and less than 20%) | A: barnyardgrass, herbicidal effect (barnyardgrass [20]): 5 (mortality of 90% or above (nearly complete death)); O: beadstraw, herbicidal effect (beadstraw [21]): 3 (mortality of at least 40% and less than 70%); N: common chickweed, herbicidal effect (common chickweed [22]): 3 (mortality of at least 40% and less than 70%); L: common lambsquater, herbicidal effect (common lambsquater [23]): 3 (mortality of at least 40% and less than 70%); J: common ragweed, herbicidal effect (common ragweed [24]): 4 (mortality of at least 70% and less than 90%); E: giant foxtail, herbicidal effect (giant foxtail [25]): 3 (mortality of at least 40% and less than 70%); D: large crabgrass, herbicidal effect (large crabgrass [26]): 0 (mortality of less than 5% (almost ineffective)); M: posumbu knotweed, herbicidal effect (posumbu knotweed [27]): 0 (mortality of less than 5% (almost ineffective)); K: redroot pigweed, herbicidal effect (redroot pigweed [28]): 0 (mortality of less than 5% (almost ineffective)); I: velvetleaf, herbicidal effect (velvetleaf [29]): 3 (mortality of at least 40% and less than 70%); G: water foxtail, herbicidal effect (water foxtail [30]): 5 (mortality of 90% or above (nearly complete death)) |
| CCOC(=O)N(c1ccccc1CN1OCC(CC)OC1=O)S(=O)(=O)C(F)(F)F (centres unmarked) [III-6] | 5 (mortality of 90% or above (nearly complete death)) | 5 (mortality of 90% or above (nearly complete death)) | 5 (mortality of 90% or above (nearly complete death)) | 0 (mortality of less than 5% (almost ineffective)) | 5 (mortality of 90% or above (nearly complete death)) | 5 (mortality of 90% or above (nearly complete death)) | 5 (mortality of 90% or above (nearly complete death)) | 5 (mortality of 90% or above (nearly complete death)) | 5 (mortality of 90% or above (nearly complete death)) | 4 (mortality of at least 70% and less than 90%) | 5 (mortality of 90% or above (nearly complete death)) | 4 (mortality of at least 70% and less than 90%) | 4 (mortality of at least 70% and less than 90%) | 4 (mortality of at least 70% and less than 90%) | 5 (mortality of 90% or above (nearly complete death)) | 5 (mortality of 90% or above (nearly complete death)) | 3 (mortality of at least 40% and less than 70%) | 5 (mortality of 90% or above (nearly complete death)) | 5 (mortality of 90% or above (nearly complete death)) | 2 (mortality of at least 20% and less than 40%) | A: barnyardgrass, herbicidal effect (barnyardgrass [20]): 5 (mortality of 90% or above (nearly complete death)); O: beadstraw, herbicidal effect (beadstraw [21]): 3 (mortality of at least 40% and less than 70%); N: common chickweed, herbicidal effect (common chickweed [22]): 4 (mortality of at least 70% and less than 90%); L: common lambsquater, herbicidal effect (common lambsquater [23]): 3 (mortality of at least 40% and less than 70%); J: common ragweed, herbicidal effect (common ragweed [24]): 4 (mortality of at least 70% and less than 90%); E: giant foxtail, herbicidal effect (giant foxtail [25]): 5 (mortality of 90% or above (nearly complete death)); D: large crabgrass, herbicidal effect (large crabgrass [26]): 3 (mortality of at least 40% and less than 70%); M: posumbu knotweed, herbicidal effect (posumbu knotweed [27]): 5 (mortality of 90% or above (nearly complete death)); K: redroot pigweed, herbicidal effect (redroot pigweed [28]): 4 (mortality of at least 70% and less than 90%); I: velvetleaf, herbicidal effect (velvetleaf [29]): 3 (mortality of at least 40% and less than 70%); G: water foxtail, herbicidal effect (water foxtail [30]): 5 (mortality of 90% or above (nearly complete death)) |
